From US10806736B2 (priority 2018, dated 2020)
“Also recorded” adds a separate entry of the source.

Legend:
[1] = test system: Mycobacterium tuberculosis H37Ra; type: cell-based; settings: 10 μM; after 24 hours
[2] = test system: p53; assay: p53 protein expression by western blotting in macrophages infected with M. tuberculosis; type: cell-based; settings: rat BMDMs infected with M. tuberculosis H37Ra (one bacterium per cell); 10 μM; compared to Nutlin-3α; β-actin inner control
Description: It is confirmed whether p53 is expressed, when a cell is infected with M. tuberculosis, by subjecting the cell to the compound (K279-1558). Also, in order to analyze the role of p53 expression, the effect of p53 expression is confirmed from macrophages infected with M. tuberculosis. The cells were infected with avirulent M. tuberculosis (Mycobacterium tuberculosis H37Ra) in a ratio of one bacterium per cell by using bone marrow-derived macrophages (BMDMs), which is a rat-derived macrophage, and then the cells were subjected to Nutlin-3α and the compound (K279-1558) in a concentration of 10 μM. Thereafter, the number of M. tuberculosis surviving in the cells was measured.

| Structure (SMILES) | number of M. tuberculosis surviving in macrophages [1] | p53 activity / degree of p53 protein expression (western blotting) [2] |
| --- | --- | --- |
| CCC(SC1=Nc2ccccc2C2=NC(CC(=O)NCCc3ccccc3)C(=O)N12)C(=O)NCc1ccc(C)cc1 (stereo not drawn) [K279-1558] | dropped sharply; also recorded: decreased sharply | remarkably higher; also recorded: increases remarkably |
| COc1ccc(C2=N[C@@H](c3ccc(Cl)cc3)[C@@H](c3ccc(Cl)cc3)N2C(=O)N2CCNC(=O)C2)c(OC(C)C)c1 [Nutlin-3α, reference compound] | decreased sharply |  |
